Measurements: US5273991A, “Imidazole-containing compositions and methods of use thereof analogs of distamycin” (Research Corporation Technologies, Inc., priority 1992, dated 1993)

Columns and labels:
poly(dAdT) = experiment: ethidium displacement assay, poly(dAdT); assay type: binding; conditions: ± 0.02 × 10^5 M^-1, pH 7.4
Description: The ethidium displacement assay is based on the fact that ethidium binding to DNA causes a large (approximately 25 fold) florescence enhancement as a result of the hydrophobic environment surrounding the ethidium molecule. Displacement of ethidium results in decreased fluorescence, and thus binding constants of drugs to DNA can be estimated and compared by measuring the loss of fluorescence as a function of added drug. The drug concentration which produces 50% inhibition of florescence is approximately inversely proportional to the apparent binding constant.
The relative DNA binding constants (Kapp) of distamycin and Compounds 6-10 to calf thymus DNA, T4 coliphage DNA, poly(dAdT) and poly(dGdC) were determined using the ethidium displacement assay (Morgan et al., 1979). The Kapp of ethidium bromide (Debart et al., 1989) is included for comparison. 25 μL of a 2A260 DNA solution was added to 2 mL of ethidium bromide buffer (250 μL of 1.3 mM ethidium bromidestock, 314.9 mg Tris-HCl, 60.8 mg Tris base and 930/mg of Na2 EDTA.2H2 O in 250 ml H2 O) pH 7.4 and the maximum fluorescence was measured (excitation wavelength=546 nm, emission wavelength=600 nm) at ambient temperature.
DNA solutions of 2A260 were prepared as follows: T4 coliphage DNA: 10 units of DNA were dissolved in 1 mL of 10 mM sodium phosphate (pH 7.1) and 0.25 mM EDTA buffer to give a 10A260 solution. 0.3 mL of the stock solution were diluted to 1.5 mL with 10 mM sodium phosphate (pH 7.1) and 0.25 mM EDTA buffer to give a 2A260 solution. Calf thymus DNA: 100 units of DNA were dissolved in 5 mL of 10 mM sodium phosphate (pH 7.1) and 0.25 mM EDTA buffer to give a 20A260 solution. 1.5 mL of the stock solution were diluted to 15 mL with 10 mM sodium phosphate (pH 7.1) and 0.25 mM EDTA buffer to give a 2A260 solution. Poly(dA-dT) and Poly(dG-dC) DNA: 100 units of DNA were dissolved in 10 mL of 10 mM sodium phosphate pH 7.1) and 0.25 mM EDTA buffer to give a 10A260 solution. 3 mL of the stock solution were diluted to 15 mL with 10 mM sodium phosphate (pH 7.1) and 0.25 mM EDTA buffer to give a 2A260 solution.
Aliquots of 10 mM stock drug solution (1 mg of drug to be tested was dissolved with 1 mole equivalent of 0.1M HCl, and then diluted with appropriate volume of distilled water to make a 10 mM solution) were then added to the fluorescing solution and the florescence measured after each addition until a 50% reduction of fluorescence occurred. If the 10 mM stock solution lowered the % fluorescence too quickly, the stock solution was further diluted to 1 mM prior to titration. The apparent binding constant was then calculated from this equation: KEtBr [EtBr]=Kapp [drug], where [drug]=the concentration of drug at a 50% reduction of fluorescence and KEtBr [1×10^7 M^-1 for calf thymus and coliphage T4 DNA^18, 9.5×10^6 M^-1 for poly(dA.dT)^30, and 9.9×10^6 M^-1 for poly(dG.dC)^30 ] and [EtBr] were known. The concentration of ethidium bromide was 1.3 μM. The Kapp values are shown in Table I. In a separate experiment, the Kapp of Compound 5 for calf thymus DNA and poly[dGdC] were determined to be 0.3×10^5 M^-1 and 2.6×10^5 M^-1, respectively. The error in these measurements is ±[…].

SK-OV-3 = experiment: NCI cytotoxicity screen (SRB); assay type: cell-based, human
Protocol: Compounds 6, 7, 9 and 10 were tested for cytotoxic properties by the National Cancer Institute, Bethesda, Md. The anticancer drug screen utilized a panel of 60 human tumor cell lines organized into subpanels representing leukemia, melanoma, and cancers of the lung, colon, kidney, ovary and central nervous system and is described by Monks et al. (1991) Journal of the National Cancer Institute 83, 757, which is incorporated herein by reference.
Cell lines were inoculated onto microtiter plates and preincubated for 24-28 hours. 100 μL aliquots of each compound were added to the appropriate microtiter plate wells in each of five 10-fold dilutions starting from a maximum concentration of 10^-4 M in water or DMSO. Cultures were then incubated for an additional 48 hours. Cells were then fixed in situ, followed by staining with sulforhodamine B (SRB), which binds to basic amino acids of cellular macromolecules. The solubilized stain was measured spectrophotometrically to determine relative cell growth or viability in treated and untreated cells. The monoimidazole analogs of Compounds 6, 7, 9 and 10 and the formamido analog corresponding to Compounds 7 and 10 are devoid of activity against the panel of cancer cell lines in Table III.

calf thymus DNA = experiment: UV-dialysis study (covalent retention on DNA); assay type: binding; conditions: 24 h incubation at room temperature; 20-26 hours dialysis; pH 7.1
Description: The compounds of the present invention are useful as anticancer agents. Although the biological mechanism which results in anticancer activity is not fully understood, the compounds of the subject invention are capable of binding to the minor groove of double-stranded DNA and, unlike distamycin and netropsin, can tolerate GC-containing DNA. Accordingly, the DNA alkylating moiety of the compounds of the present invention can be directed to the minor groove of GC-containing regions of double-stranded DNA. One of ordinary skill in the art can determine the DNA alkylating ability of the compounds of the present invention by art-recognized methods. The formation of an irreversible adduct of DNA and a compound of the present invention is defined herein as a measure of the DNA alkylating ability of the subject compounds. The formation of an irreversible adduct can be determined by art-recognized methods. For example, a solution containing DNA and a compound of the present invention can be exhaustively dialyzed under conditions which allow unbound drug to pass out of the dialysis bag. The percentage of the compound which has been retained in the dialysis bag is considered to be covalently bound to the DNA, and is determined by comparing the UV absorption spectrum of the compound/DNA solution before and after exhaustive dialysis.
0.5 mL of 2A260 calf thymus DNA was diluted to 2 mL with 10 mM sodium phosphate and 0.25 mM EDTA buffer, pH 7.1. Four aliquots (3 μL each) of a 1 mM stock drug solution in distilled water were added to the DNA solution and a UV absorption spectrum (300-320) was recorded after each addition. The drug/DNA solution was incubated for 24 h at room temperature and another UV spectrum was recorded. The drug/DNA solution was then transferred into a dialysis bag and the dialysis bag was suspended in 30 mL of 10 mM sodium phosphate and 0.25 mM EDTA buffer, pH, 7.1, at room temperature. After 20-26 hours, the […] spectrum of 2 mL of the buffer outside the dialysis bag was recorded. The absorbance of the drug peak was converted to concentration by the Beer-Lambert equation, and the data was presented as percent initial concentration. Under these conditions, substantial amounts of Compounds 6 (55±5%), 7 (45±5%), 8 (85±5%) and 10 (100±5%) are retained in the dialysis bag, while only 29±5% of a formamido analog^1 is retained.

| Structure (SMILES) | Association constant Kapp (poly(dAdT)) | IC50 (SK-OV-3; 48 h, Ovarian Cancer SK-OV-3) | IC50 (SK-OV-3; SK-OV-3, subsequent test date) | retained in the dialysis bag (percent initial concentration) (calf thymus DNA) |
| --- | --- | --- | --- | --- |
| CN(C)CCNC(=O)c1nc(NC(=O)c2nc(NC(=O)c3ccc(N(CCCl)CCCl)cc3)cn2C)cn1C [Compound 6, N-(N',N'-dimethylaminoethyl)-1-methyl-4-{4-[4,4-bis(2-chloroethyl)aminobenzamido]-1-methylimidazole-2-carboxamido}imidazole-2-carboxamide] | 475000 M⁻¹ | 52.9 µM | 6.18 µM | 55±5% |
| CN(C)CCNC(=O)c1nc(NC(=O)c2nc(NC(=O)c3nc(NC(=O)c4ccc(N(CCCl)CCCl)cc4)cn3C)cn2C)cn1C [Compound 7, N-(N',N'-dimethylaminoethyl)-1-methyl-4-{1-methyl-4-[4-(4,4-bis-(2-chloroethyl)aminobenzamido)-1-methylimidazole-2-carboxamido]imidazole-2-carboxamido}imidazole-2-carboxamide] | 950000 M⁻¹ | 0.83 µM | 0.48 µM | 45±5% |
| CN(C)CCNC(=O)c1nc(NC(=O)c2nc(NC(=O)c3nc(NCc4ccc(N(CCCl)CCCl)cc4)cn3C)cn2C)cn1C [Compound 8, N-(N',N'-dimethylaminoethyl)-1-methyl-4-{1-methyl-4-[4-(4,4-bis-(2-chloroethyl)aminobenzylamino)-1-methylimidazole-2-carboxamido]imidazole-2-carboxamido}imidazole-2-carboxamide] | 457000 M⁻¹ |  |  | 85±5% |
| CN(C)CCNC(=O)c1nc(NC(=O)c2nc(NC(=O)CCCc3ccc(N(CCCl)CCCl)cc3)cn2C)cn1C [Compound 9, N-(N',N'-dimethylaminoethyl)-1-methyl-4-{4-[4,4-bis(2-chloroethyl)aminophenyl-1-butanamido]-1-methylimidazole-2-carboxamido}imidazole-2-carboxamide] | 54000 M⁻¹ |  |  |  |
| CN(C)CCNC(=O)c1nc(NC(=O)c2nc(NC(=O)c3nc(NC(=O)CCCc4ccc(N(CCCl)CCCl)cc4)cn3C)cn2C)cn1C [Compound 10, N-(N',N'-dimethylaminoethyl)-1-methyl-4-{1-methyl-4-[4-(4,4-bis(2-chloroethyl)aminophenyl-1-butanamido)-1-methylimidazole-2-carboxamido]imidazole-2-carboxamido}imidazole-2-carboxamide] | 13000 M⁻¹ |  |  | 100±5% |
